Entries after “also recorded” stand apart in the source; their conditions may differ.
Legend:
[1] = tested on: choroidal neovascularization (CNV) lesions; experiment: Laser-induced CNV lesion size by OCT in mice fed dabigatran chow; type: in vivo, C57BL/6J mice
Description: Mouse model of choroidal neovascularization (CNV): Choroidal neovascularization. C57BL/6J mice (males and females) from the same colony, to guarantee identical microbiome ([…] al., 2016), were recruited to the study at 3 months of age. Argon laser photocoagulation (532 nm, 100 μm spot size, 0.1 s duration, 100 mW) was used to generate 4 laser spots around the optic nerve of each eye (Rohrer et al., 2009), utilizing bubble formation at the site of the laser burn as the inclusion criteria for successful Bruch's membrane rupture (Nozaki et al., 2006). Dabigatran exposure. Mice were fed standard chow fortified with dabigatran etexilate (10 […] of chow; Boehringer Ingelheim). Mice were either fed dabigatran chow during the angiogenesis period of CNV (starting 2 days prior to CNV induction through day 6 when the tissues were collected), or during the wound healing period (starting after the OCT analysis to ensure CNV growth on day 5 through day 23). Optical Coherence Tomography (OCT) analysis. OCT was used to quantify CNV lesion size on day 5 post laser treatment (Schnabolk, G., et al. (2014). Exp Eye Res 129, 18-23; Schnabolk, G., et al. (2015). Invest Ophthalmol Vis Sci; and Coughlin, B., et al. (2016). Sci Rep 6, 23794), or in weekly intervals to document recovery from fibrosis (Parsons, N., et al. (2019). Mol Immunol 108, 8-12) using an SD-OCT Bioptigen® Spectral Domain Ophthalmic Imaging System (Bioptigen Inc., Durham NC). Mice were anesthetized prior to imaging, eyes kept hydrated with normal saline, and body temperature was carefully monitored to prevent anesthesia-induced cataracts. The methods for imaging and analysis have been described (Schnabolk, G., et al. (2014). Exp Eye Res 129, 18-23; Schnabolk, G., et al. (2015). Invest Ophthalmol Vis Sci; Coughlin, B., et al. (2016). Sci Rep 6, 23794; and Parsons, N., et al. (2019). Mol Immunol 108, 8-). Based on the size of the individual pixels (1.6×1.6 μm), the lesion sizes were calculated.

[2] = target: thrombin (Homo sapiens, UniProt P00734); experiment: Thrombin activity in cell-free system; details: 10 μM, thrombin 10-500 U/mL
Procedure: Thrombin activity in cell-free system. To measure the level of active thrombin in cell-free system, known concentrations of thrombin were prepared in 100 μl of assay buffer (50 mM Tris, 100 mM NaCl, and 0.01% BSA; pH 7.5), subsequently 50 μl of thrombin substrate was added and incubated at 37° C. Fluorescence was measured at 405 nm using the Biotek Synergy HT Microplate Reader and thrombin activity was determined by extrapolation from a thrombin standard curve. Effects of inhibitors were tested by pre-incubating the inhibitors with thrombin, before substrate incorporation.

[3] = target: thrombin (Mus musculus, UniProt P19221)
Procedure: Thrombin activity assay. Thrombin activity was measured according to a methodology described by Ludwicka with modifications (Ohba, T., et al. (1994). Am J Respir Cell Mol Biol 10, 405-412). Thrombin specific peptide Boc-Val-Pro-Arg-7-amido-4-methylcoumarin hydrochloride (Sigma-Aldrich) was reconstituted in molecular grade ice-cold H2O at a concentration of 0.5 mg/ml and used as substrate.
It was test whether dabigatran would alter the course of angiogenesis or repair, by feeding animals with dabigatran chow during the two different phases.

[4] = tested on: C3α breakdown products C3d/C3dg and C3α′1; experiment: Complement activation (C3d) in RPE/choroid of CNV mice (western blot); type: in vivo, mouse
Description: (§1) Pathway analysis in CNV. Based on the results in cells, an analysis in animals followed, focusing on VEGF levels in the RPE/choroid, complemented by CTGF analysis and complement activation (C3d production and binding). RPE/choroid samples were collected at the end of the angiogenesis experiment (day 6) and after the final OCT analysis in the repair experiment (day 23) and compared to naive controls (no CNV and no dabigatran treatment).
Unexpectedly, and in contrast to the cell data (FIG. 4), C3d deposition was not reduced by dabigatran.

[5] = tested on: VEGF; experiment: VEGF levels in RPE/choroid of CNV mice (western blot); type: in vivo, mouse
Description: as §1

[6] = tested on: CTGF; experiment: CTGF levels in RPE/choroid of CNV mice (western blot); type: in vivo, mouse; details: end of repair period (23 days), P<0.01
Description: as §1

[7] = tested on: VEGF secretion in ARPE-19 cells; experiment: VEGF secretion into apical supernatant of ARPE-19 monolayers (ELISA); type: cell-based, human; details: dabigatran, thrombin-treated cells
Procedure: Cell culture experiments: Cells. […] Frontiers in Aging Neuroscience 9).
VEGF ELISA. VEGF in the supernatant was measured using the Quantikine® Human VEGF Immunoassay (R & D System) according to the manufacturer's protocol. In brief, 200 μl of standard/sample was mixed with 50 μl of assay diluent and added to the plate precoated with the capture antibody. After washing, 200 μl of the VEGF detection antibody (polyclonal antibody specific for human VEGF conjugated to horseradish peroxidase) was added, followed by freshly prepared substrate reagents (stabilized hydrogen peroxide and tetramethylbenzidine). The reaction was terminated using 50 μl of stop solution and absorbance was measured at λ1 450 nm with wavelength correction λ2 at 540 nm. VEGF concentration of samples were calculated comparing the absorbance with the standards and converted into fold change considering the serum-free condition as 1 in the scale.

Compound: CCCCCCOC(=O)NC(=N)c1ccc(NCc2nc3cc(C(=O)N(CCC(=O)OCC)c4ccccn4)ccc3n2C)cc1
- reduction of CNV lesion sizes ([1]; dabigatran from 2 days prior to CNV induction through angiogenesis phase, OCT day 5, insignificant, P=0.2): ~15%
- CNV lesion size at final time point ([1]; dabigatran from day 5 through repair phase, day 23, P<0.02): significantly smaller lesions
- CNV lesion response over time (repair) ([1]; repair phase days 5-23, repeated measure ANOVA P<0.0001): significant effect of treatment; also recorded: acceleration of repair
- effect on thrombin enzyme activity [2]: significantly reduce
- reduction of thrombin activity in retina/RPE/choroid tissues ([3]; mice on dabigatran chow vs control mice, P=0.04): ~10%
- reduction of thrombin activity in serum ([3]; mice on dabigatran chow ˜10 mg/kg per day vs control mice, P=0.003): ~35%
- thrombin activity in retina/RPE/choroid tissues ([3]; mice on dabigatran chow, control: 100±3.1): 91.1±2.6
- thrombin activity in serum ([3]; mice on dabigatran chow, control: 100±7.6): 65.4±5.1
- effect on C3d deposition ([4]; CNV animals, repair phase): not reduced
- effect on C3d/C3dg and C3α′1 levels in RPE/choroid ([4]; end of repair period (23 days), P<0.05): further elevated
- effect on VEGF levels in RPE/choroid ([5]; 6-day time point, angiogenesis phase, P=0.9): no effect
- effect on VEGF levels in RPE/choroid ([5]; 23-day time point, repair phase, P=0.001): significantly reduced
- effect on CTGF levels in RPE/choroid [6]: significantly reduced
- reduction of thrombin-induced VEGF content [7]: ~35%

— US20230381163A1, “DABIGATRAN COMPOSITIONS AND METHODS OF TREATING AGE-RELATED MACULAR DEGENERATION” (The United States Government As Represented By The …, priority 2022, published 2023)
